Test results from patent publication US20050107394A1, “Novel use of selective pde5 inhibitors” (priority 2001, published 2005).
Several values for one entry are separate records, joined by “and”; a condition that tells them apart may be missing. Equal values may be shown once.

Legend:
[1] = tested on: patients with COPD (chronic obstructive pulmonary disease); assay: 6-minutes walking test in COPD patients; type: in vivo, human; details: 6 months
Excerpt: FIG. 7: Result of the 6-minutes walking test measured on 4 patients with COPD (chronic obstructive pulmonary disease). […]

[2] = tested on: patients with COPD (chronic obstructive pulmonary disease); assay: Arterial oxygen saturation at rest in COPD patients; type: in vivo, human; set-up: dose or concentration left out as unconfirmed; details: 4 COPD patients; sildenafil oral, 6 months
Method: FIG. 8: Result of determination of the arterial oxygen saturation on 4 patients with COPD (chronic obstructive pulmonary disease) treated with sildenafil (75 mg/day) (oral) measured at rest over a period of 6 months. The arterial oxygen saturation in the patient improved respectively by 2%, 4%, 5% and 6%, compared with the saturation at the start of the series of measurements (time: 0 months). […]

CCCc1nn(C)c2c(=O)[nH]c(-c3cc(S(=O)(=O)N4CCN(C)CC4)ccc3OCC)nc12 [sildenafil, 5-[2-ethoxy-5-(4-methyl-1-piperazinyl-sulphonyl)phenyl]-1-methyl-3-n-propyl-1,6-dihydro-7H-pyrazolo[4,3-d]pyrimidin-7-one]
6-minutes walking distance, improvement compared with the starting point (0 months), one value per patient ([1]; 4 COPD patients, 75 mg sildenafil oral each day): 41% and 45% and 74% and 150% | functional capacity (6-min walking, arterial O2 saturation), words ([1]; 4 patients, 50 mg/d sildenafil oral): marked improvement | arterial oxygen saturation at rest, improvement compared with the start (0 months), one value per patient [2]: 2% and 4% and 5% and 6%
